According to ChEMBL document CHEMBL1201862, “PubChem BioAssay data set” (2004):
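Dose response: 5 concentrations. Exposure: 48 h. Format: 96-well plates. Endpoint: linear interpolation; highest concentration if not reached. The concentration for 50% growth inhibition is given as GI50.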 Calls of active or inactive are those of the source. No stated cut-off is given here; in the data, active = GI50 up to about 1.1 µM and inactive = higher.

Tests used:
Experiment in all cases: NCI tumour cell line growth inhibition, 48 h
NCI-H23 = system: NCI-H23
NCI-H460 = system: NCI-H460
COLO 205 = system: COLO 205
SNB-75 = system: SNB-75
LOX IMVI = system: LOX IMVI
SK-MEL-2 = system: SK-MEL-2
A498 = system: A498
TK-10 = system: TK-10
SW-620 = system: SW-620
HCT-15 = system: HCT-15
HOP-92 = system: HOP-92
IGROV-1 = system: IGROV-1
ACHN = system: ACHN
A549 = system: A549
CCRF-CEM = system: CCRF-CEM
KM-20L2 = system: KM-20L2
HT-29 = system: HT-29
OVCAR-5 = system: OVCAR-5
MOLT-4 = system: MOLT-4
NCI-H226 = system: NCI-H226
SK-MEL-28 = system: SK-MEL-28
RXF 393 = system: RXF 393
SN12C = system: SN12C
UACC-257 = system: UACC-257
DMS-273 = system: DMS-273
M14 = system: M14
LXFL 529 = system: LXFL 529
UO-31 = system: UO-31
Malme-3M = system: Malme-3M
HOP-18 = system: HOP-18
HCC 2998 = system: HCC 2998
K562 = system: K562
CAKI-1 = system: CAKI-1
SNB-78 = system: SNB-78
OVCAR-8 = system: OVCAR-8
U-251 = system: U-251
SK-OV-3 = system: SK-OV-3
DMS-114 = system: DMS-114
SF-268 = system: SF-268
RPMI-8226 = system: RPMI-8226
NCI-H522 = system: NCI-H522
HCT-116 = system: HCT-116
OVCAR-3 = system: OVCAR-3
OVCAR-4 = system: OVCAR-4
786-0 = system: 786-0
UACC-62 = system: UACC-62
DLD-1 = system: DLD-1
M19-MEL = system: M19-MEL
SR = system: SR
KM12 = system: KM12
HOP-62 = system: HOP-62
SNB-19 = system: SNB-19
HL-60 = system: HL-60
SF-295 = system: SF-295
EKVX = system: EKVX
SF-539 = system: SF-539
SK-MEL-5 = system: SK-MEL-5

SMILES: COC(=O)C1=C(C)N(NC(=O)Nc2ccccc2)C2(N)N(NC(=O)Nc3ccccc3)C(C)=C(C(=O)OC)C12C(=O)OC (stereo unspecified)
- GI50 (NCI-H23): > 100 µM (inactive)
- GI50 (NCI-H460): 38.3 µM (inactive)
- GI50 (COLO 205): 34.7 µM (inactive)
- GI50 (SNB-75): 36.1 µM (inactive)
- GI50 (LOX IMVI): 72.6 µM (inactive)
- GI50 (SK-MEL-2): 36 µM (inactive)
- GI50 (A498): 59.6 µM (inactive)
- GI50 (TK-10): 69.3 µM (inactive)
- GI50 (SW-620): 63.4 µM (inactive)
- GI50 (HCT-15): 76.4 µM
- GI50 (HOP-92): > 100 µM (inactive)
- GI50 (IGROV-1): 24.5 µM (inactive)
- GI50 (ACHN): 98.2 µM (inactive)
- GI50 (A549): > 100 µM (inactive)
- GI50 (CCRF-CEM): 35.2 µM (inactive)
- GI50 (KM-20L2): > 100 µM (inactive)
- GI50 (HT-29): 65.2 µM (inactive)
- GI50 (OVCAR-5): > 100 µM (inactive)
- GI50 (MOLT-4): 27.1 µM (inactive)
- GI50 (NCI-H226): 60.4 µM (inactive)
- GI50 (SK-MEL-28): > 100 µM (inactive)
- GI50 (RXF 393): 75.9 µM (inactive)
- GI50 (SN12C): 63.2 µM (inactive)
- GI50 (UACC-257): 16.4 µM (inactive)
- GI50 (DMS-273): 40.3 µM (inactive)
- GI50 (M14): 47.5 µM (inactive)
- GI50 (LXFL 529): 62.5 µM (inactive)
- GI50 (UO-31): > 100 µM (inactive)
- GI50 (Malme-3M): 84.5 µM (inactive)
- GI50 (HOP-18): 81.8 µM (inactive)
- GI50 (HCC 2998): 39.4 µM (inactive)
- GI50 (K562): 51.9 µM (inactive)
- GI50 (CAKI-1): 23.7 µM (inactive)
- GI50 (SNB-78): 26.1 µM (inactive)
- GI50 (OVCAR-8): 71 µM (inactive)
- GI50 (U-251): 43.3 µM (inactive)
- GI50 (SK-OV-3): > 100 µM (inactive)
- GI50 (DMS-114): 77.1 µM (inactive)
- GI50 (SF-268): > 100 µM (inactive)
- GI50 (RPMI-8226): 26.8 µM (inactive)
- GI50 (NCI-H522): 32.3 µM (inactive)
- GI50 (HCT-116): > 100 µM (inactive)
- GI50 (OVCAR-3): 54.2 µM (inactive)
- GI50 (OVCAR-4): 64.9 µM (inactive)
- GI50 (786-0): 66.7 µM (inactive)
- GI50 (UACC-62): 41.3 µM (inactive)
- GI50 (DLD-1): 55.7 µM (inactive)
- GI50 (M19-MEL): 25.1 µM (inactive)

SMILES: CCCC(=O)OC1C(C2COC(C)(C)O2)OC2OC(C)(C)OC21 (stereo unspecified)
- GI50 (NCI-H23): > 100 µM (inactive)
- GI50 (NCI-H460): > 100 µM (inactive)
- GI50 (SR): > 100 µM (inactive)
- GI50 (A498): > 100 µM (inactive)
- GI50 (TK-10): > 100 µM (inactive)
- GI50 (KM12): > 100 µM (inactive)
- GI50 (HOP-92): > 100 µM (inactive)
- GI50 (IGROV-1): > 100 µM (inactive)
- GI50 (ACHN): > 100 µM (inactive)
- GI50 (CCRF-CEM): > 100 µM (inactive)
- GI50 (KM-20L2): > 100 µM (inactive)
- GI50 (HT-29): > 100 µM (inactive)
- GI50 (OVCAR-5): > 100 µM (inactive)
- GI50 (MOLT-4): > 100 µM (inactive)
- GI50 (HOP-62): > 100 µM (inactive)
- GI50 (SK-MEL-28): > 100 µM (inactive)
- GI50 (RXF 393): > 100 µM (inactive)
- GI50 (SNB-19): > 100 µM (inactive)
- GI50 (UACC-257): > 100 µM (inactive)
- GI50 (DMS-273): > 100 µM (inactive)
- GI50 (M14): > 100 µM (inactive)
- GI50 (HL-60): > 100 µM (inactive)
- GI50 (UO-31): > 100 µM (inactive)
- GI50 (K562): > 100 µM (inactive)
- GI50 (SF-295): > 100 µM (inactive)
- GI50 (SNB-78): > 100 µM (inactive)
- GI50 (OVCAR-8): > 100 µM (inactive)
- GI50 (U-251): > 100 µM (inactive)
- GI50 (SK-OV-3): > 100 µM (inactive)
- GI50 (DMS-114): > 100 µM (inactive)
- GI50 (NCI-H522): > 100 µM (inactive)
- GI50 (HCT-116): > 100 µM (inactive)
- GI50 (EKVX): > 100 µM (inactive)
- GI50 (UACC-62): > 100 µM (inactive)
- GI50 (M19-MEL): > 100 µM (inactive)

SMILES: COC1OC(C)C(O)CC1OS(=O)(=O)c1ccc(C)cc1 (stereo unspecified)
- GI50 (NCI-H23): > 100 µM (inactive)
- GI50 (NCI-H460): > 100 µM (inactive)
- GI50 (COLO 205): > 100 µM (inactive)
- GI50 (SNB-75): 37.9 µM (inactive)
- GI50 (LOX IMVI): > 100 µM (inactive)
- GI50 (SK-MEL-2): > 100 µM (inactive)
- GI50 (A498): > 100 µM (inactive)
- GI50 (TK-10): > 100 µM (inactive)
- GI50 (SW-620): > 100 µM (inactive)
- GI50 (KM12): > 100 µM (inactive)
- GI50 (HCT-15): > 100 µM
- GI50 (HOP-92): > 100 µM (inactive)
- GI50 (IGROV-1): > 100 µM (inactive)
- GI50 (ACHN): > 100 µM (inactive)
- GI50 (A549): > 100 µM (inactive)
- GI50 (CCRF-CEM): > 100 µM (inactive)
- GI50 (KM-20L2): > 100 µM (inactive)
- GI50 (SF-539): > 100 µM (inactive)
- GI50 (HT-29): > 100 µM (inactive)
- GI50 (OVCAR-5): > 100 µM (inactive)
- GI50 (MOLT-4): > 100 µM (inactive)
- GI50 (NCI-H226): > 100 µM (inactive)
- GI50 (SK-MEL-28): > 100 µM (inactive)
- GI50 (RXF 393): > 100 µM (inactive)
- GI50 (SN12C): > 100 µM (inactive)
- GI50 (SNB-19): > 100 µM (inactive)
- GI50 (UACC-257): > 100 µM (inactive)
- GI50 (DMS-273): > 100 µM (inactive)
- GI50 (M14): > 100 µM (inactive)
- GI50 (HL-60): > 100 µM (inactive)
- GI50 (LXFL 529): > 100 µM (inactive)
- GI50 (UO-31): > 100 µM (inactive)
- GI50 (Malme-3M): > 100 µM (inactive)
- GI50 (HOP-18): > 100 µM (inactive)
- GI50 (K562): > 100 µM (inactive)
- GI50 (SF-295): > 100 µM (inactive)
- GI50 (CAKI-1): > 100 µM (inactive)
- GI50 (SNB-78): > 100 µM (inactive)
- GI50 (OVCAR-8): > 100 µM (inactive)
- GI50 (U-251): > 100 µM (inactive)
- GI50 (SK-OV-3): > 100 µM (inactive)
- GI50 (DMS-114): > 100 µM (inactive)
- GI50 (SF-268): > 100 µM (inactive)
- GI50 (RPMI-8226): > 100 µM (inactive)
- GI50 (NCI-H522): > 100 µM (inactive)
- GI50 (HCT-116): > 100 µM (inactive)
- GI50 (SK-MEL-5): > 100 µM (inactive)
- GI50 (OVCAR-3): > 100 µM (inactive)
- GI50 (EKVX): > 100 µM (inactive)
- GI50 (OVCAR-4): > 100 µM (inactive)
- GI50 (786-0): > 100 µM (inactive)
- GI50 (UACC-62): > 100 µM (inactive)
- GI50 (M19-MEL): > 100 µM (inactive)
